Assay results from ChEMBL document CHEMBL4507315 (2021).

Tests used:
[1] = tested on: Tyrosine-protein kinase ABL1 (Homo sapiens), P00519 [T315I]; conditions: Compound concentration 100.0 nM
[2] = molecular target: Atypical kinase COQ8A, mitochondrial (Homo sapiens) (UniProt Q8NI60); conditions: Compound concentration 100.0 nM
[3] = molecular target: RAC-alpha serine/threonine-protein kinase (Homo sapiens) (UniProt P31749); conditions: Compound concentration 100.0 nM
[4] = tested on: ALK tyrosine kinase receptor (Homo sapiens), Q9UM73 [C1156Y]; conditions: Compound concentration 100.0 nM
[5] = molecular target: Tyrosine-protein kinase Blk (Homo sapiens) (UniProt P51451); conditions: Compound concentration 100.0 nM
[6] = molecular target: Bone morphogenetic protein receptor type-1B (Homo sapiens) (UniProt O00238); conditions: Compound concentration 100.0 nM
[7] = molecular target: Cytoplasmic tyrosine-protein kinase BMX (Homo sapiens) (UniProt P51813); conditions: Compound concentration 100.0 nM
[8] = molecular target: Cyclin-dependent kinase 19 (Homo sapiens) (UniProt Q9BWU1); conditions: Compound concentration 100.0 nM
[9] = molecular target: Casein kinase I isoform delta (Homo sapiens) (UniProt P48730); conditions: Compound concentration 100.0 nM
[10] = molecular target: Death-associated protein kinase 2 (Homo sapiens) (UniProt Q9UIK4); conditions: Compound concentration 100.0 nM
[11] = molecular target: Serine/threonine-protein kinase 17A (Homo sapiens) (UniProt Q9UEE5); conditions: Compound concentration 100.0 nM
[12] = tested on: Epidermal growth factor receptor (Homo sapiens), P00533 [UNDEFINED MUTATION]; conditions: Compound concentration 100.0 nM
[13] = molecular target: Eukaryotic translation initiation factor 2-alpha kinase 1 (Homo sapiens) (UniProt Q9BQI3); conditions: Compound concentration 100.0 nM
[14] = molecular target: Ephrin type-A receptor 8 (Homo sapiens) (UniProt P29322); conditions: Compound concentration 100.0 nM
[15] = molecular target: Mitogen-activated protein kinase 7 (Homo sapiens) (UniProt Q13164); conditions: Compound concentration 100.0 nM
[16] = molecular target: Fibroblast growth factor receptor 2 (Homo sapiens) (UniProt P21802); conditions: Compound concentration 100.0 nM
[17] = molecular target: Tyrosine-protein kinase Fgr (Homo sapiens) (UniProt P09769); conditions: Compound concentration 100.0 nM
[18] = tested on: Receptor-type tyrosine-protein kinase FLT3 (Homo sapiens), P36888 [UNDEFINED MUTATION]; conditions: Compound concentration 100.0 nM
[19] = molecular target: G protein-coupled receptor kinase 4 (Homo sapiens) (UniProt P32298); conditions: Compound concentration 100.0 nM
[20] = tested on: Mast/stem cell growth factor receptor Kit (Homo sapiens), P10721 [D816H]; conditions: Compound concentration 100.0 nM
[21] = molecular target: Tyrosine-protein kinase Lyn (Homo sapiens) (UniProt P07948); conditions: Compound concentration 100.0 nM
[22] = molecular target: Mitogen-activated protein kinase kinase kinase 1 (Homo sapiens) (UniProt Q13233); conditions: Compound concentration 100.0 nM
[23] = molecular target: Tyrosine-protein kinase Mer (Homo sapiens) (UniProt Q12866); conditions: Compound concentration 100.0 nM
[24] = molecular target: Mitogen-activated protein kinase kinase kinase 10 (Homo sapiens) (UniProt Q02779); conditions: Compound concentration 100.0 nM
[25] = molecular target: Serine/threonine-protein kinase Nek1 (Homo sapiens) (UniProt Q96PY6); conditions: Compound concentration 100.0 nM
[26] = molecular target: Serine/threonine-protein kinase Nek2 (Homo sapiens) (UniProt P51955); conditions: Compound concentration 100.0 nM
[27] = molecular target: Serine/threonine-protein kinase Nek7 (Homo sapiens) (UniProt Q8TDX7); conditions: Compound concentration 100.0 nM
[28] = molecular target: Serine/threonine-protein kinase PAK 6 (Homo sapiens) (UniProt Q9NQU5); conditions: Compound concentration 100.0 nM
[29] = molecular target: Cyclin-dependent kinase 18 (Homo sapiens) (UniProt Q07002); conditions: Compound concentration 100.0 nM
[30] = molecular target: Phosphatidylinositol 4-phosphate 3-kinase C2 domain-containing subunit beta (Homo sapiens) (UniProt O00750); conditions: Compound concentration 100.0 nM
[31] = tested on: Phosphatidylinositol 4,5-bisphosphate 3-kinase catalytic subunit alpha isoform (Homo sapiens), P42336 [C420R]; conditions: Compound concentration 100.0 nM
[32] = tested on: Phosphatidylinositol 4,5-bisphosphate 3-kinase catalytic subunit alpha isoform (Homo sapiens), P42336 [H1047L]; conditions: Compound concentration 100.0 nM
[33] = molecular target: Phosphatidylinositol 4-kinase beta (Homo sapiens) (UniProt Q9UBF8); conditions: Compound concentration 100.0 nM
[34] = molecular target: Serine/threonine-protein kinase PLK3 (Homo sapiens) (UniProt Q9H4B4); conditions: Compound concentration 100.0 nM
[35] = molecular target: Protein kinase C delta type (Homo sapiens) (UniProt Q05655); conditions: Compound concentration 100.0 nM
[36] = molecular target: Protein kinase C eta type (Homo sapiens) (UniProt P24723); conditions: Compound concentration 100.0 nM
[37] = molecular target: Protein kinase C iota type (Homo sapiens) (UniProt P41743); conditions: Compound concentration 100.0 nM
[38] = molecular target: Serine/threonine-protein kinase D1 (Homo sapiens) (UniProt Q15139); conditions: Compound concentration 100.0 nM
[39] = molecular target: STE20/SPS1-related proline-alanine-rich protein kinase (Homo sapiens) (UniProt Q9UEW8); conditions: Compound concentration 100.0 nM
[40] = molecular target: Mitogen-activated protein kinase kinase kinase 7 (Homo sapiens) (UniProt O43318); conditions: Compound concentration 100.0 nM
[41] = molecular target: TGF-beta receptor type-1 (Homo sapiens) (UniProt P36897); conditions: Compound concentration 100.0 nM
[42] = molecular target: Tyrosine-protein kinase receptor TYRO3 (Homo sapiens) (UniProt Q06418); conditions: Compound concentration 100.0 nM
[43] = molecular target: Phosphatidylinositol 3-kinase catalytic subunit type 3 (Homo sapiens) (UniProt Q8NEB9); conditions: Compound concentration 100.0 nM
[44] = molecular target: Sodium-dependent serotonin transporter (Homo sapiens) (UniProt P31645); conditions: Compound concentration 10.0 uM
[45] = molecular target: Muscarinic acetylcholine receptor M1 (Homo sapiens) (UniProt P11229); conditions: Compound concentration 10.0 uM

Chain of Mitogen-activated protein kinase 7 (Homo sapiens) (Q13164 2-816 limits assumed): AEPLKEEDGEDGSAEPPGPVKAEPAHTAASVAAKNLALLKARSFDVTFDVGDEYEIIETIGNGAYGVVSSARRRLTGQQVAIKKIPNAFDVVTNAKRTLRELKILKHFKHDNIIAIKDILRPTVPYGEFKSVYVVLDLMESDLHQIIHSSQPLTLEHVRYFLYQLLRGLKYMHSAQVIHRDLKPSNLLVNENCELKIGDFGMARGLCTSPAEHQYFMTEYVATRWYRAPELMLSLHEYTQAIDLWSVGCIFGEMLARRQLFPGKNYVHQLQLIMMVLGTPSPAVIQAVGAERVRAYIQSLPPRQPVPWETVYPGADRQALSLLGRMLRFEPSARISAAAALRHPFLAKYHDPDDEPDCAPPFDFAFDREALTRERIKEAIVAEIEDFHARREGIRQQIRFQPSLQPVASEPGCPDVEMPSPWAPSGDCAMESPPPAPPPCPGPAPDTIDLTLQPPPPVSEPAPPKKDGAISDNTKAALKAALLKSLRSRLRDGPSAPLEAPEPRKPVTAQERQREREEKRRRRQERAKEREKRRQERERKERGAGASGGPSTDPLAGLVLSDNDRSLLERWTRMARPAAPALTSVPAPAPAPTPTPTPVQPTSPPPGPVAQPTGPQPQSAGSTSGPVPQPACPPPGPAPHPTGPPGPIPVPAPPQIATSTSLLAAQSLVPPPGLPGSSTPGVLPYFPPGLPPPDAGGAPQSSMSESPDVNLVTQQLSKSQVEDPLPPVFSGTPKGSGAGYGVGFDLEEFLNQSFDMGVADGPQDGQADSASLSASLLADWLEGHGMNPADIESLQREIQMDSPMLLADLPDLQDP
Chain of Cytoplasmic tyrosine-protein kinase BMX (Homo sapiens) (P51813 whole entry): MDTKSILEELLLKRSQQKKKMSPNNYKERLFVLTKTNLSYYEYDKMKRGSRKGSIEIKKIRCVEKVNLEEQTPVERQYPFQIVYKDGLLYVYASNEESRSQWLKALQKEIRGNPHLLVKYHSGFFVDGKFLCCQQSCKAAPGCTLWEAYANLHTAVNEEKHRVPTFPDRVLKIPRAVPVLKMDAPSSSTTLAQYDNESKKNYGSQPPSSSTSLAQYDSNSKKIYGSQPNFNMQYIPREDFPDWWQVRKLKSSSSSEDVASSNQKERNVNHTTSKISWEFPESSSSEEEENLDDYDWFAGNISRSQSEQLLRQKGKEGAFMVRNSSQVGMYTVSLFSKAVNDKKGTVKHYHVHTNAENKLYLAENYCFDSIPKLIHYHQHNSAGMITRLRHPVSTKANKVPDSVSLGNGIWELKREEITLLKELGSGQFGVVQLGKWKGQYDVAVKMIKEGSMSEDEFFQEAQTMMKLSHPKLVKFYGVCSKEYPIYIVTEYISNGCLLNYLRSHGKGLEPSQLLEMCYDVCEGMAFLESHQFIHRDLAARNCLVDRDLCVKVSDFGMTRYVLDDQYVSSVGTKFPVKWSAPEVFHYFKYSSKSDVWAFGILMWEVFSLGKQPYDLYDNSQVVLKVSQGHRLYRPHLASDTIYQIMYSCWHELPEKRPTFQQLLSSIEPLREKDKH
Chain of Eukaryotic translation initiation factor 2-alpha kinase 1 (Homo sapiens) (Q9BQI3 whole entry): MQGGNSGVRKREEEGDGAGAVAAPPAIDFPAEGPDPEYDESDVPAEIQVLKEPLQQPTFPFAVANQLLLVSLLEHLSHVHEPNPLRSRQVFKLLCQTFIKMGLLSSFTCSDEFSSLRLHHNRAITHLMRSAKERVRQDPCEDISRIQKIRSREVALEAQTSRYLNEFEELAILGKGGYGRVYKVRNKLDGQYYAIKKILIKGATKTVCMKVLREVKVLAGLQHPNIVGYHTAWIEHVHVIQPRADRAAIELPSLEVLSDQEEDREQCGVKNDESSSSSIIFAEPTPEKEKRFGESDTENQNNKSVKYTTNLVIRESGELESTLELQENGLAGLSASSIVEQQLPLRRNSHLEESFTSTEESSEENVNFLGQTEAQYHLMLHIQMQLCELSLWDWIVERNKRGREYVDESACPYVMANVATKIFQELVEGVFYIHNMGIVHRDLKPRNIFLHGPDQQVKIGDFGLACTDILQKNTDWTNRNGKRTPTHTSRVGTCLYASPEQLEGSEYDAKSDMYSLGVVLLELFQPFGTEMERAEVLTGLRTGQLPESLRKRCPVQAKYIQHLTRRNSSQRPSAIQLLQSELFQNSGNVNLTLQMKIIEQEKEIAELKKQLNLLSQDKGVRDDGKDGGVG
Chain of Mitogen-activated protein kinase kinase kinase 1 (Homo sapiens) (Q13233 whole entry): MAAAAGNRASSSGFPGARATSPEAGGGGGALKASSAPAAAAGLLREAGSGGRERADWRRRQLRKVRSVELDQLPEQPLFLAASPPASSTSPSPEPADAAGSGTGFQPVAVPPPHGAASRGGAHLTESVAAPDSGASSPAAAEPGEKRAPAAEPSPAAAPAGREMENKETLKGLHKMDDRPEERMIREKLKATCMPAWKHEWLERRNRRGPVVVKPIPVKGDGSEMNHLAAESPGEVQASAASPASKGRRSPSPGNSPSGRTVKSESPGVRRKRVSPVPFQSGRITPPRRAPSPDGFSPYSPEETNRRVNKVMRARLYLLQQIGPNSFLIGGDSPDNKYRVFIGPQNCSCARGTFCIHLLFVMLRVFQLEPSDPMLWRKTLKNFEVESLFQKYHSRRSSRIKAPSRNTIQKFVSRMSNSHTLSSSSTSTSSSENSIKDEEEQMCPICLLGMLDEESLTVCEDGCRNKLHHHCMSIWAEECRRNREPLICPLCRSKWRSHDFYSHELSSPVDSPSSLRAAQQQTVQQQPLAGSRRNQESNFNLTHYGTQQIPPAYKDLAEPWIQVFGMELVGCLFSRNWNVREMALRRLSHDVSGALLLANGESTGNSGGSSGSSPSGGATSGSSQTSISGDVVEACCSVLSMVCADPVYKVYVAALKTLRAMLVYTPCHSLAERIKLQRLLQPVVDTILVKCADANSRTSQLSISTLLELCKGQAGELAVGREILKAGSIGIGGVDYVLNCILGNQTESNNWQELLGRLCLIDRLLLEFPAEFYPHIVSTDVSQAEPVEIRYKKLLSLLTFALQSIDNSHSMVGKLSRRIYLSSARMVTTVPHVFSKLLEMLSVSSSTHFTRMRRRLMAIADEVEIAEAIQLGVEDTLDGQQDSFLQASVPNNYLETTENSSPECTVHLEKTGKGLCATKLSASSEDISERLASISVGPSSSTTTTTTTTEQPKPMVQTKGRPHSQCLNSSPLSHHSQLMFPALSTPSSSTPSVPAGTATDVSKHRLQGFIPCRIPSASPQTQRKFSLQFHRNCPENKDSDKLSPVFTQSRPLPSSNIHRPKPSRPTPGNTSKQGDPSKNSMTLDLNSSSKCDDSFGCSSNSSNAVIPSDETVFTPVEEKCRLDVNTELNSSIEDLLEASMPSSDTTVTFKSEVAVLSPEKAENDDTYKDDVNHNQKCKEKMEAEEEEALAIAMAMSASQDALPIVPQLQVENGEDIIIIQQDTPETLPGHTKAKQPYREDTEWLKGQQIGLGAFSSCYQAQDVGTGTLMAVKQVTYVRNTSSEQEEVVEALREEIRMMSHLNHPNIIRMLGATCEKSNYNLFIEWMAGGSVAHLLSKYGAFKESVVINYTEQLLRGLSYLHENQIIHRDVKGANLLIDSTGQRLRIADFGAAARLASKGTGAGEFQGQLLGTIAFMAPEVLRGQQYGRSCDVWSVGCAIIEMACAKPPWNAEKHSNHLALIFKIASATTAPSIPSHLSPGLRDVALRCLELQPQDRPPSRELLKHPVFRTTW
Chain of Ephrin type-A receptor 8 (Homo sapiens) (P29322 whole entry): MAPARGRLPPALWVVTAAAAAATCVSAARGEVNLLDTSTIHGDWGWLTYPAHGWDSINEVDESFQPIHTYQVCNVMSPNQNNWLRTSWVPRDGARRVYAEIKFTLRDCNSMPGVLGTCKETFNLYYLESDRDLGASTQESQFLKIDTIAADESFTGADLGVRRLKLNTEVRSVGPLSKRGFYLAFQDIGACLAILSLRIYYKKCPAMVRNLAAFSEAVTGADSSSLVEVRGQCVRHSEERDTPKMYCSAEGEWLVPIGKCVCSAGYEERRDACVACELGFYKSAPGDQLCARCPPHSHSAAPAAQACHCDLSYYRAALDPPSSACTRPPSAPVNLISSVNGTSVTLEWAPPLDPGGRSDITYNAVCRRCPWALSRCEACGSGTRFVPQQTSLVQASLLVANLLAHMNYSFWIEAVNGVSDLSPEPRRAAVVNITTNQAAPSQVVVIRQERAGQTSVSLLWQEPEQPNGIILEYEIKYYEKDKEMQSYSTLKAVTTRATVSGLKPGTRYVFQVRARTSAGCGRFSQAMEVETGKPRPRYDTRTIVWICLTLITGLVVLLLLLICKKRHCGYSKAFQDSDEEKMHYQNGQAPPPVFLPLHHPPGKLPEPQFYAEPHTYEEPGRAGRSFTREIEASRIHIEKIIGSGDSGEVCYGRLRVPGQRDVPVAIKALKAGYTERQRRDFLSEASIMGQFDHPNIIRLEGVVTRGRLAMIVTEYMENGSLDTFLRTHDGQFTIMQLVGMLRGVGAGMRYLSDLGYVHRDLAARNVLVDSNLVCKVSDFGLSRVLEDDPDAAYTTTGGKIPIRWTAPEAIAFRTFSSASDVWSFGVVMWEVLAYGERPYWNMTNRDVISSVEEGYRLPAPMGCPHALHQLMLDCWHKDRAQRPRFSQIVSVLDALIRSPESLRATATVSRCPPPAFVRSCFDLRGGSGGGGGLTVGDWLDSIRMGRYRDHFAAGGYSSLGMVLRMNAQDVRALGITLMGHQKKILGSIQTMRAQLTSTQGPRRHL
Chain of Casein kinase I isoform delta (Homo sapiens) (P48730 whole entry, looked up, canonical isoform): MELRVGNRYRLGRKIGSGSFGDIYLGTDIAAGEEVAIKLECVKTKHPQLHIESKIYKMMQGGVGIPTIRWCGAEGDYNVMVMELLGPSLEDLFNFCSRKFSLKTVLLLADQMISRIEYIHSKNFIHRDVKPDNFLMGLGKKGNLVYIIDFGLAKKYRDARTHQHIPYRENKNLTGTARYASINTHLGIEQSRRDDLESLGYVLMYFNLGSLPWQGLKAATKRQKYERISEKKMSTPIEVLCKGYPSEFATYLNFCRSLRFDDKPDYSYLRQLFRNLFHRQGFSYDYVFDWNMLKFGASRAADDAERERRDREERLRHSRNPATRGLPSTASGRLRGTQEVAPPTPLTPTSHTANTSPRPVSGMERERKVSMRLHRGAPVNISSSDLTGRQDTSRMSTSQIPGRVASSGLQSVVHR

Nc1c(C(=O)NCc2ccc(C(=O)NCCCC3CCCCC3)cc2)cnn1-c1ccccc1 [SR-318]
inactive: residual activity [1] 100% | residual activity [2] 100% | residual activity [3] 100% | residual activity [4] 100% | residual activity [5] 81% | residual activity [6] 100% | residual activity [7] 100% | residual activity [8] 99% | residual activity [9] 100% | residual activity [10] 100% | residual activity [11] 100% | residual activity [12] 100% | residual activity [13] 100% | residual activity [14] 100% | residual activity [15] 78% | residual activity [16] 100% | residual activity [17] 100% | residual activity [18] 90% | residual activity [19] 100% | residual activity [20] 61% | residual activity [21] 100% | residual activity [22] 96% | residual activity [23] 100% | residual activity [24] 85% | residual activity [25] 84% | residual activity [26] 100% | residual activity [27] 99% | residual activity [28] 100% | residual activity [29] 100% | residual activity [30] 99% | residual activity [31] 100% | residual activity [32] 100% | residual activity [33] 100% | residual activity [34] 100% | residual activity [35] 88% | residual activity [36] 98% | residual activity [37] 97% | residual activity [38] 100% | residual activity [39] 96% | residual activity [40] 100% | residual activity [41] 100% | residual activity [42] 100% | residual activity [43] 99% | inhibition [44] 7.75% | inhibition [45] 31.1%

O=C(NCCCC1CCCCC1)c1ccc(CNC(=O)c2cnn(-c3ccccc3)c2C(F)(F)F)cc1 [SR-321]
inactive: residual activity [1] 100% | residual activity [2] 100% | residual activity [3] 100% | residual activity [4] 100% | residual activity [5] 100% | residual activity [6] 92% | residual activity [7] 75% | residual activity [8] 96% | residual activity [9] 100% | residual activity [10] 98% | residual activity [11] 100% | residual activity [12] 99% | residual activity [13] 95% | residual activity [14] 95% | residual activity [15] 100% | residual activity [16] 100% | residual activity [17] 95% | residual activity [18] 100% | residual activity [19] 100% | residual activity [20] 78% | residual activity [21] 100% | residual activity [22] 65% | residual activity [23] 100% | residual activity [24] 87% | residual activity [25] 58% | residual activity [26] 100% | residual activity [27] 97% | residual activity [28] 100% | residual activity [29] 100% | residual activity [30] 86% | residual activity [31] 85% | residual activity [32] 86% | residual activity [33] 77% | residual activity [34] 100% | residual activity [35] 100% | residual activity [36] 100% | residual activity [37] 100% | residual activity [38] 100% | residual activity [39] 100% | residual activity [40] 89% | residual activity [41] 89% | residual activity [42] 100% | residual activity [43] 100% | inhibition [44] 0.18% | inhibition [45] 11.8%
